The source of these data is patent US20260356856A1, “KRAS G12S AND G12C INHIBITORS” (MIRATI THERAPEUTICS, INC., priority 2023, published 2026).

One experiment has as its target T1, KRas G12C (Homo sapiens, UniProt P01116, G12C).
T1 construct: Biotinylated KRas (corresponding to amino acids 1-169, produced at Accelegan Inc.); biotin (biotinylated); purchased Accelegan Inc
Put plainly: KRas binding assay, TR-FRET displacement of Cy5 labelled tracer. Particulars: 60-minute incubation at room temperature, 1% DMSO, pH 7.5. A digest of the protocol: (§1)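 Compound competes with tracer for biotin-labelled KRas (amino acids 1-169) bound to terbium-streptavidin. Incubation runs 60 minutes at room temperature, final DMSO 1%. IC50 values derive from a 4-parameter fit.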
(In general: Time-resolved FRET reads energy transfer from a long-lived donor to a nearby acceptor.)

For a further experiment, the target named is T2, KRas G12S (Homo sapiens, UniProt P01116, G12S).
T2 construct: Biotinylated KRas (corresponding to amino acids 1-169, produced at Accelegan Inc.); biotin (biotinylated); purchased Accelegan Inc
The experiment is described as above. Particulars: 60-minute incubation at room temperature, 1% DMSO, pH 7.5. A digest of the protocol: as §1

Another experiment has as its target T3, KRas WT (Homo sapiens, UniProt P01116).
T3 construct: Biotinylated KRas (corresponding to amino acids 1-169, produced at Accelegan Inc.); biotin (biotinylated); purchased Accelegan Inc
The description is as above. Particulars: 60-minute incubation at room temperature, 1% DMSO, pH 7.5. A digest of the protocol: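 Tb-streptavidin captured biotinylated KRas (1-169) in HEPES 50 mM, DTT 1 mM, MgCl2 5 mM, Tween-20 0.005% (pH 7.5), alongside tracer and compound at 1% final DMSO. One hour at RT, then read; IC50 from 4-parameter POC fit.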

In experiment [1] the target is T4, KRas-mediated phosphorylation of ERK in MKN1 cells (Homo sapiens, UniProt P01116).
T4 construct: pERK HTRF read-out
Put plainly: Inhibition of KRas-mediated phosphorylation of ERK (HTRF), MKN1 cells. Type of experiment: cell-based. Particulars: MKN1 cells (KRas WT); HTRF pERK; 3 h incubation. How it is done:
Inhibition of KRas Phosphorylation of ERK (HTRF) by Exemplary Compounds of Formula (Ia) or (Ib)
Cisbio HTRF Advanced pERK Assay Catalog #64AERPEH • Cells: MKN1, PSN1 • Procedure: • 1. Day 1: Seed 6,000 cells/well −25 μl/well in 384-well white solid bottom plate; RPM1_10% FBS. Incubate overnight at 37 °C/5% CO2. • 2.

For experiment [2], the target named is T5, KRas-mediated phosphorylation of ERK in A549 cells (Homo sapiens, UniProt P01116, G12S).
T5 construct: pERK HTRF read-out
Put plainly: Inhibition of KRas-mediated phosphorylation of ERK (HTRF), A549 cells. The class given is cell-based. Particulars: HTRF pERK, 3 h incubation.

The target of experiment [3] is T6, KRas-mediated phosphorylation of ERK in H358 cells (Homo sapiens, UniProt P01116, G12C).
T6 construct: pERK HTRF read-out
The experiment can be described thus: Inhibition of KRas-mediated phosphorylation of ERK (HTRF), H358 cells. The class given is cell-based. Particulars: HTRF pERK, 3 h incubation.

Usually IC50 stands for the concentration needed to halve the response being measured. A lower IC50 goes with greater potency.

SMILES strings stand for the structures. Where only a bound is given, the exact number is not on record here.

T2 sequence (P01116 1-169 isoform P01116-2 G12S): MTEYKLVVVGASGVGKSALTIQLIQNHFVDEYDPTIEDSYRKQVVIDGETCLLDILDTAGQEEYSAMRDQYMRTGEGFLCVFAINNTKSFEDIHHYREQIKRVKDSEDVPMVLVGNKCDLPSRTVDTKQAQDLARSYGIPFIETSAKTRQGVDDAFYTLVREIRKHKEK
T4 sequence (P01116 1-188 isoform P01116-2): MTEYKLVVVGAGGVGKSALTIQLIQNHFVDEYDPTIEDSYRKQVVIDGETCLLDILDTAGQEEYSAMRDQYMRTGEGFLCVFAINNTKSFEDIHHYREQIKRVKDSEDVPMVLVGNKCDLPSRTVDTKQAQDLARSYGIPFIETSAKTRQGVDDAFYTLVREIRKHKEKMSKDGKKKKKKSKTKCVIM
T5 sequence (P01116 1-188 isoform P01116-2 G12S): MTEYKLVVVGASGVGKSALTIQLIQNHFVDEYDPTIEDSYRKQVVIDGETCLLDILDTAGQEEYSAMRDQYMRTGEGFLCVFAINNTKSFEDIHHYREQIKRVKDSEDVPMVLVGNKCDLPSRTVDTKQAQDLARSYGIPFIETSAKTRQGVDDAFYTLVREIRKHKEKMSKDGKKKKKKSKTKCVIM
T3 sequence (P01116 1-169 isoform P01116-2): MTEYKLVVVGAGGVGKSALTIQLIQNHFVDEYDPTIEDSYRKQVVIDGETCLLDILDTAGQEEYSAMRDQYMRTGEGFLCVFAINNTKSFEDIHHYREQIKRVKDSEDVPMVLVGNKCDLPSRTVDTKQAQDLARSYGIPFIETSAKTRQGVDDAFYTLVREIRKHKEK
T1 sequence (P01116 1-169 isoform P01116-2 G12C): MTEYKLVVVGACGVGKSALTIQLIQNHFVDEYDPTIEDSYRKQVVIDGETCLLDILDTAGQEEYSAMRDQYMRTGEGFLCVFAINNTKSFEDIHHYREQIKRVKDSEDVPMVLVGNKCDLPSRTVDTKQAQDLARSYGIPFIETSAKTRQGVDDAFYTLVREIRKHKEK
T6 sequence (P01116 1-188 isoform P01116-2 G12C): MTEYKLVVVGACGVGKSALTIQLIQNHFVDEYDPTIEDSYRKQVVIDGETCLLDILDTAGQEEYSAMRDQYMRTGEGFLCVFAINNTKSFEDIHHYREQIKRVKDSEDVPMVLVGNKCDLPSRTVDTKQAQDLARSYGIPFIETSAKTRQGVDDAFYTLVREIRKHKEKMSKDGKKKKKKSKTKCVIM

For the molecule `CCc1c(F)ccc2cc(O)cc(-c3ncc4c(N5CCC(C(=O)NC(C)=O)CC5)nc(OC[C@@]56CCCN5C[C@H](F)C6)nc4c3F)c12` [Example 212, N-acetyl-1-(7-(8-ethyl-7-fluoro-3-hydroxynaphthalen-1-yl)-8-fluoro-2-(((2R,7aS)-2-fluorotetrahydro-1H-pyrrolizin-7a(5H)-yl)methoxy)pyrido[4,3-d]pyrimidin-4-yl)piperidine-4-carboxamide], the IC50 on KRas G12C is 623 nM; on KRas G12S, 371 nM; on KRas WT, 165 nM; in experiment [1], 868 nM; in experiment [2], above 10000 nM; in experiment [3], 4600 nM.

Turning to `CN(CCNC(=O)n1nccn1)c1nc(OC[C@@]23CCCN2C[C@H](F)C3)nc2c(F)c(-c3ccc(F)c4sc(N)c(C#N)c34)c(Cl)cc12` [Example 213, N-(2-((7-(2-amino-3-cyano-7-fluorobenzo[b]thiophen-4-yl)-6-chloro-8-fluoro-2-(((2R,7aS)-2-fluorotetrahydro-1H-pyrrolizin-7a(5H)-yl)methoxy)quinazolin-4-yl)(methyl)amino)ethyl)-2H-1,2,3-triazole-2-carboxamide], the IC50 on KRas G12C is below 2 nM; on KRas G12S, 5 nM; at KRas WT it was 8 nM; in experiment [1], 387 nM; in experiment [2] it was 1180 nM; in experiment [3], 10 nM.

On to `CN(CCCC(=O)Nc1ccccn1)c1nc(OC[C@@]23CCCN2C[C@H](F)C3)nc2c(F)c(-c3ccc(F)c4sc(N)c(C#N)c34)c(Cl)cc12` [Example 214, 4-((7-(2-amino-3-cyano-7-fluorobenzo[b]thiophen-4-yl)-6-chloro-8-fluoro-2-(((2R,7aS)-2-fluorotetrahydro-1H-pyrrolizin-7a(5H)-yl)methoxy)quinazolin-4-yl)(methyl)amino)-N-(pyridin-2-yl)butanamide], for which the IC50 at KRas G12C stood at 8 nM; at KRas G12S, 13 nM; at KRas WT it was 14 nM; in experiment [1], 120 nM; in experiment [2], 661 nM; in experiment [3] it was 93 nM.

As for `Cc1ccn(C(=O)C2CCCN(c3nc(OC[C@@]45CCCN4C[C@H](F)C5)nc4c(F)c(-c5csc6ccc(N)nc56)c(Cl)cc34)CC2)n1` (stereo partly drawn) [Example 215, (1-(7-(5-aminothieno[3,2-b]pyridin-3-yl)-6-chloro-8-fluoro-2-(((2R,7aS)-2-fluorotetrahydro-1H-pyrrolizin-7a(5H)-yl)methoxy)quinazolin-4-yl)azepan-4-yl)(3-methyl-1H-pyrazol-1-yl)methanone], the IC50 at KRas G12C is 2400 nM; at KRas G12S, 169 nM; at KRas WT it was 11400 nM; in experiment [1], 3920 nM; in experiment [2] it was 242 nM; in experiment [3], above 10000 nM.

Turning to `N#Cc1c(N)sc2c(F)ccc(-c3c(Cl)cc4c(N5CCC[C@H](C(=O)n6ccc(C7CC7)n6)CC5)nc(OC[C@@]56CCCN5C[C@H](F)C6)nc4c3F)c12` [Example 216, 2-amino-4-(6-chloro-4-((S)-4-(3-cyclopropyl-1H-pyrazole-1-carbonyl)azepan-1-yl)-8-fluoro-2-(((2R,7aS)-2-fluorotetrahydro-1H-pyrrolizin-7a(5H)-yl)methoxy)quinazolin-7-yl)-7-fluorobenzo[b]thiophene-3-carbonitrile], the IC50 on KRas G12C is 4 nM; at KRas G12S, 3 nM; on KRas WT it was 22 nM; in experiment [1], 71 nM; in experiment [2] it was 2 nM; in experiment [3], 5 nM.

In the case of `COC(=O)CCCN(C)c1nc(OC[C@@]23CCCN2C[C@H](F)C3)nc2c(F)c(-c3ccc(F)c4sc(N)c(C#N)c34)c(Cl)cc12` [Example 217, methyl 4-((7-(2-amino-3-cyano-7-fluorobenzo[b]thiophen-4-yl)-6-chloro-8-fluoro-2-(((2R,7aS)-2-fluorotetrahydro-1H-pyrrolizin-7a(5H)-yl)methoxy)quinazolin-4-yl)(methyl)amino)butanoate], the IC50 was 5 nM at KRas G12C; 7 nM at KRas G12S; 9 nM at KRas WT; 763 nM in experiment [1]; 6880 nM in experiment [2]; 296 nM in experiment [3].

Consider `CN(CCCC(=O)Oc1ccccc1F)c1nc(OC[C@@]23CCCN2C[C@H](F)C3)nc2c(F)c(-c3ccc(F)c4sc(N)c(C#N)c34)c(Cl)cc12` [Example 218, 2-fluorophenyl 4-((7-(2-amino-3-cyano-7-fluorobenzo[b]thiophen-4-yl)-6-chloro-8-fluoro-2-(((2R,7aS)-2-fluorotetrahydro-1H-pyrrolizin-7a(5H)-yl)methoxy)quinazolin-4-yl)(methyl)amino)butanoate], for which the IC50 at KRas G12C was determined as 3 nM; on KRas G12S, 16 nM; at KRas WT it was 83 nM; in experiment [1] it was 322 nM; in experiment [2], 175 nM; in experiment [3] it was 15 nM.

Consider `CN(C)CCc1ccn(C(=O)C2CCCN(c3nc(OC[C@@]45CCCN4C[C@H](F)C5)nc4c(F)c(-c5ccc(F)c6sc(N)c(C#N)c56)c(Cl)cc34)CC2)n1` (stereo partly drawn) [Example 219, 2-amino-4-(6-chloro-4-(4-(3-(2-(dimethylamino)ethyl)-1H-pyrazole-1-carbonyl)azepan-1-yl)-8-fluoro-2-(((2R,7aS)-2-fluorotetrahydro-1H-pyrrolizin-7a(5H)-yl)methoxy)quinazolin-7-yl)-7-fluorobenzo[b]thiophene-3-carbonitrile], for which the IC50 was 3 nM on KRas G12C; 4 nM on KRas G12S; 10 nM on KRas WT; 431 nM in experiment [1]; 12 nM in experiment [2]; 16 nM in experiment [3].

Take `CC(C)(C)c1ccn(C(=O)C2CCCN(c3nc(OC[C@@]45CCCN4C[C@H](F)C5)nc4c(F)c(-c5ccc(F)c6sc(N)c(C#N)c56)c(Cl)cc34)CC2)n1` (stereo partly drawn) [Example 220, 2-amino-4-(4-(4-(3-(tert-butyl)-1H-pyrazole-1-carbonyl)azepan-1-yl)-6-chloro-8-fluoro-2-(((2R,7aS)-2-fluorotetrahydro-1H-pyrrolizin-7a(5H)-yl)methoxy)quinazolin-7-yl)-7-fluorobenzo[b]thiophene-3-carbonitrile]: the IC50 at KRas G12C was found to be 209 nM; at KRas G12S, 153 nM; at KRas WT it was 160 nM; in experiment [1], 258 nM; in experiment [2], 336 nM; in experiment [3], 449 nM.

On to `CCc1c(F)ccc2cc(O)cc(-c3ncc4c(N(C)CCCC(=O)N(C)C(C)=O)nc(OC[C@@]56CCCN5C[C@H](F)C6)nc4c3F)c12` [Example 221, N-acetyl-4-((7-(8-ethyl-7-fluoro-3-hydroxynaphthalen-1-yl)-8-fluoro-2-(((2R,7aS)-2-fluorotetrahydro-1H-pyrrolizin-7a(5H)-yl)methoxy)pyrido[4,3-d]pyrimidin-4-yl)(methyl)amino)-N-methylbutanamide], for which the IC50 worked out at 43 nM at KRas G12C; 11 nM on KRas G12S; 101 nM on KRas WT; 409 nM in experiment [1]; 26 nM in experiment [2]; 485 nM in experiment [3].

For `Cc1ccn(C(=O)C2CCCN(c3nc(OC[C@@]45CCCN4C[C@H](F)C5)nc4c(F)c(-c5nc(N)ccc5C)c(Cl)cc34)CC2)n1` (stereo partly drawn) [Example 222, (1-(7-(6-amino-3-methylpyridin-2-yl)-6-chloro-8-fluoro-2-(((2R,7aS)-2-fluorotetrahydro-1H-pyrrolizin-7a(5H)-yl)methoxy)quinazolin-4-yl)azepan-4-yl)(3-methyl-1H-pyrazol-1-yl)methanone], the IC50 at KRas G12C is 18300 nM; on KRas G12S, 3410 nM; at KRas WT, 29600 nM; in experiment [1] it was 8260 nM; in experiment [2], 1970 nM; in experiment [3], above 10000 nM.

For `CCc1c(F)ccc2cc(O)cc(-c3ncc4c(N(C)CCN(C)C(=O)n5cncn5)nc(OC[C@@]56CCCN5C[C@H](F)C6)nc4c3F)c12` [Example 223, N-(2-((7-(8-ethyl-7-fluoro-3-hydroxynaphthalen-1-yl)-8-fluoro-2-(((2R,7aS)-2-fluorotetrahydro-1H-pyrrolizin-7a(5H)-yl)methoxy)pyrido[4,3-d]pyrimidin-4-yl)(methyl)amino)ethyl)-N-methyl-1H-1,2,4-triazole-1-carboxamide], the IC50 at KRas G12C turned out to be 42 nM; on KRas G12S, 53 nM; at KRas WT, 164 nM; in experiment [1], 569 nM; in experiment [2], 2390 nM; in experiment [3] it was 17 nM.
